Measurements from ChEMBL document CHEMBL1201862, “PubChem BioAssay data set” (2004).
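All cell lines were grown in 96-well plates and treated with compound for 48 hours. GI50 marks 50% less growth.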 Activity calls are given as the source filed them. Cut-off read from the data, not from the text of the source: active = GI50 up to about 1.1 µM and inactive = higher.

Legend:
Test in all cases: growth of human tumour cells (NCI), 48 h
[1] = test system: 786-0
[2] = test system: COLO 205
[3] = test system: HCT-15
[4] = test system: HOP-62
[5] = test system: HOP-92
[6] = test system: M19-MEL
[7] = test system: NCI-H23
[8] = test system: SF-295
[9] = test system: SK-MEL-2
[10] = test system: SK-MEL-5
[11] = test system: SN12C
[12] = test system: SW-620
[13] = test system: TK-10
[14] = test system: UACC-257
[15] = test system: UACC-62
[16] = test system: SF-268

Compound	GI50 [1]	GI50 [2]	GI50 [3]	GI50 [4]	GI50 [5]	GI50 [6]	GI50 [7]	GI50 [8]	GI50 [9]	GI50 [10]	GI50 [11]	GI50 [12]	GI50 [13]	GI50 [14]	GI50 [15]	GI50 [16]
Cc1ccc2c(C3Cc4ccccc4N3C(=O)/C=C\C(=O)O)c(C)[nH]c2c1 (stereo unspecified)	47.9 µM (inactive)	22.3 µM (inactive)	26.9 µM	30.1 µM (inactive)	30.8 µM (inactive)	67.5 µM (inactive)	67.9 µM (inactive)	28.8 µM (inactive)	17.5 µM (inactive)	41.4 µM (inactive)	49.8 µM (inactive)	33.1 µM (inactive)	56.1 µM (inactive)	41.3 µM (inactive)	29.2 µM (inactive)	
CC(=O)OC1COC(N2C(=O)C(=O)c3cc(Br)c([N+](=O)[O-])cc32)C(OC(C)=O)C1OC(C)=O (stereo unspecified)	> 100 µM (inactive)	> 100 µM (inactive)	> 100 µM	> 100 µM (inactive)	34.8 µM (inactive)	21.2 µM (inactive)	55 µM (inactive)	> 100 µM (inactive)	> 100 µM (inactive)	> 100 µM (inactive)	> 100 µM (inactive)	> 100 µM (inactive)	> 100 µM (inactive)	> 100 µM (inactive)	49.3 µM (inactive)	59.2 µM (inactive)
CCN(CC)c1ccc(/N=N/c2ccc([N+](=O)[O-])cc2OC(=O)/C=C/c2ccccc2)c(OC(=O)/C=C/c2ccccc2)c1	7.43 µM (inactive)	> 100 µM (inactive)	19.5 µM	2.12 µM (inactive)	> 100 µM (inactive)	5 µM (inactive)	12.2 µM (inactive)	4.6 µM (inactive)	> 95.3 µM (inactive)	12.2 µM (inactive)	20.6 µM (inactive)	7.57 µM (inactive)	27.3 µM (inactive)	2.23 µM (inactive)	8.11 µM (inactive)	1.93 µM (inactive)
O=c1cccccc1NCCCNc1cccccc1=O	> 100 µM (inactive)	> 100 µM (inactive)	> 100 µM	> 100 µM (inactive)	> 100 µM (inactive)	> 100 µM (inactive)	> 100 µM (inactive)	> 100 µM (inactive)	> 100 µM (inactive)		15.9 µM (inactive)	> 100 µM (inactive)		> 100 µM (inactive)	> 100 µM (inactive)	> 100 µM (inactive)
CCc1ccccc1NC(=O)/C(CC(=O)c1c(C)[n+]([O-])c2ccccc2[n+]1[O-])=N\NS(=O)(=O)c1ccc(C)cc1	87.5 µM (inactive)	36.8 µM (inactive)	33.7 µM	> 100 µM (inactive)		16 µM (inactive)	35.2 µM (inactive)	> 100 µM (inactive)	> 100 µM (inactive)		28.8 µM (inactive)	25.9 µM (inactive)	> 100 µM (inactive)	23.9 µM (inactive)	18.9 µM (inactive)	25.8 µM (inactive)
CC(=O)OC(=O)O/C=C\CCl	> 100 µM (inactive)	> 100 µM (inactive)	> 100 µM	> 100 µM (inactive)		> 100 µM (inactive)			> 100 µM (inactive)	> 100 µM (inactive)	> 100 µM (inactive)	> 100 µM (inactive)	> 100 µM (inactive)	> 100 µM (inactive)	> 100 µM (inactive)	> 100 µM (inactive)
Cc1ccc(NC(=O)CCc2nnc3s/c(=C\c4cccc([N+](=O)[O-])c4)c(=O)n23)cc1	40.4 µM (inactive)	> 100 µM (inactive)	> 100 µM	16.7 µM (inactive)	85.3 µM (inactive)	> 100 µM (inactive)	> 100 µM (inactive)	59.2 µM (inactive)	> 100 µM (inactive)	> 100 µM (inactive)	> 100 µM (inactive)	19.3 µM (inactive)	> 100 µM (inactive)	> 100 µM (inactive)	> 100 µM (inactive)	> 100 µM (inactive)
C[n+]1cccc(NC(=O)c2ccc(NC(=O)C34CCC(C(=O)Nc5ccc(C(=O)Nc6ccc[n+](C)c6)cc5)(CC3)CC4)cc2)c1	3.7 µM (inactive)	> 10 µM (inactive)	58.2 µM	25.5 µM (inactive)	> 100 µM (inactive)	54.1 µM (inactive)	56.5 µM (inactive)	19.7 µM (inactive)		33.2 µM (inactive)	3.23 µM (inactive)	70.1 µM (inactive)		15.7 µM (inactive)	> 100 µM (inactive)	16.4 µM (inactive)
Cc1ccc(NC(=O)c2cccc([N+](=O)[O-])c2O)c([N+](=O)[O-])c1	12.7 µM (inactive)	19.9 µM (inactive)	14.4 µM	20.5 µM (inactive)	21.5 µM (inactive)	14.3 µM (inactive)	13.6 µM (inactive)	15.1 µM (inactive)			16.5 µM (inactive)	16.8 µM (inactive)		16.2 µM (inactive)	12 µM (inactive)	17.9 µM (inactive)
